The record followed here is patent publication US20210170043A1, “DC-SIGN ANTIBODY CONJUGATES COMPRISING STING AGONISTS” (NOVARTIS AG, priority 2018, published 2021).

pEC50: −log10 of the molar value.

A word on the pEC50: it is the negative decadic logarithm of the EC50, by convention in mol/L.

One test concerns THP1-Dual cells. In words: THP1-Dual assay (Lucia reporter). It counts as cell-based. The settings on record: Homo sapiens, 384 well, 16-24 hours, normalized to 2'3'-cGAMP at 50 uM. As to the method:
THP1-Dual cells were purchased from Invivogen. THP1-Dual cells were plated in 384 well plates in 20 uL of tissue culture media and incubated overnight. Compounds were added the next day and incubated 16-24 hours. Lucia reporter signal was read out by adding Quantiluc reagent (Invivogen) followed by reading on an Envision plate reader. The fold change over background was calculated and normalized to the fold-change induced by 2′3′-cGAMP at 50 uM. Plates were run in triplicate.

The target of a further test is T1, human STING wild type (Homo sapiens, UniProt Q86WV6, H232R).
T1 construct: expressed in transfected cells; host or cells: HEK-293T
In words: hSTING wt assay (5xISRE-mIFNb-GL4 luciferase reporter in transfected HEK-293T cells). It counts as cell-based. The settings on record: read after 9-14 hours, normalized to 2'3'-cGAMP at 50 uM. As to the method:
Cells were incubated overnight and treated with compounds. After 9-14 hours, plates were read by adding BrightGlo reagent (Promega) and reading on an Envision plate reader. The fold change over background was calculated and normalized to the fold-change induced by 2′3′-cGAMP at 50 uM. Plates were run in triplicate.
On the technique in general: In a reporter assay the amount or activity of a reporter protein is the signal.

The subject of test [1] is transgenic mice expressing human DC-SIGN gene (Tg+). In words: Plasma cytokine and chemokine levels in human DC-SIGN transgenic mice. The format is in vivo, mouse. The settings on record: 100 μg free compound i.v., 6 hours post dose, vs untreated and 10 μg. As to the method: Blood was collected at 6 hours post dose to analyze plasma cytokine and chemokine levels and spleens were analyzed at 24 hours post dose to look at dendritic cell activation.
(§1) Mice were bled 6 hours after dosing to collect plasma for analysis of circulating cytokine levels.
Plasma was collected at indicated timepoints and analyzed with a Mouse IP-10 Platinum ELISA kit (eBioscience Affymetrix). Plasma was diluted 1:100 and the protocol was followed according to the manufacturer's recommendations. Data was collected using an Enspire spectro-photometer using […] as the primary wavelength.
Plasma was collected at indicated timepoints and analyzed with a Mouse IFN-beta ELISA kit (R&D Systems) according to the manufacturer's recommendations. Data was collected using an Enspire spectro-photometer using […] as the primary wavelength.
Plasma was collected at indicated timepoints and analyzed with a mouse Proinflammatory Panel 1 (mouse) Kit V-PLEX™ 10 plex from MesoScale Discovery. 25 μL of plasma per sample was used and protocol was followed according to the manufacturer's recommendations. Data were collected and analyzed using a Sector Imager 6000.
Human DC-SIGN transgenic mice (Tg+) (Schaefer et al., J. Immunol. (2008) 180 (10) 6836-6845) were bred to Signr1 deficient mice (−/− or KO) (Orr et al., Glycobiology (2013) 23(3): 363-380). Human DC-SIGN expression was checked using PCR to genotype the mice. Human DC-SIGN Tg+ Signr1−/− mice or human DC-SIGN Tg− Signr1−/− mice were tested with compounds as indicated in the above examples.

The next test relates to THP1-Dual/STING-KO cells. Description: THP1-Dual/STING-KO assay. It counts as cell-based. Particulars: Homo sapiens, pooled STING-KO clones. As to the method: The fold change over background was calculated and normalized to the fold-change induced by 2′3′-cGAMP at 50 uM. Plates were run in triplicate.
Test [2] deals with transgenic mice expressing human DC-SIGN gene (Tg+). Description: Plasma cytokine production in transgenic mice expressing human DC-SIGN (ELISA / MesoScaleDiscovery). The format is in vivo, mouse. As to the method:
FIGS. 5A-5E show exemplary data on DC-SIGN immunoconjugates inducing cytokine production in Tg+ mice. […] Plasma levels were analyzed by ELISA (IP-10 and IFNβ) or MesoScaleDiscovery Multiplex analysis (all other analytes). **** denotes p value of <0.0001 using an ANOVA with Tukey's test compared to Tg-2B2 hlgG1 DAPA C1 group.
as §1
(ELISA stands for enzyme-linked immunosorbent assay.)

T1 sequence (Q86WV6 whole entry H232R): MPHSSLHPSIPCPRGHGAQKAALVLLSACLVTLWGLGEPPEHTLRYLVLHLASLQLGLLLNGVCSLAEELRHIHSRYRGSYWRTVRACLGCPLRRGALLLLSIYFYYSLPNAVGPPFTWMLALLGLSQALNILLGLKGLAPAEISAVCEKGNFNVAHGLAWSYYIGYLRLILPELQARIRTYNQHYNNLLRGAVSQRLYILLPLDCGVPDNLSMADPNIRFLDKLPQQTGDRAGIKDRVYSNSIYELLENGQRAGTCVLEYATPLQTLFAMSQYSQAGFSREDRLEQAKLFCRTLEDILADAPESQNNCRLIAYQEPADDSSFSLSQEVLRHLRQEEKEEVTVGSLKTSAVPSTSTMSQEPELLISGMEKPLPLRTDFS

On to `CCCCCCCCCCO[C@@H]1[C@@H]2O[P@](=O)(S)OC[C@H]3O[C@@H](n4cnc5c(N)ncnc54)[C@H](O[P@](=O)(S)OC[C@H]2O[C@H]1n1cnc2c(N)ncnc21)[C@@H]3O`, for which the pEC50 with THP1-Dual cells is under 4.60.
Take `NCCCNc1ncnc2c1ncn2[C@@H]1O[C@@H]2CO[P@@](=O)(S)O[C@H]3[C@@H](F)[C@H](n4cnc5c(N)ncnc54)O[C@@H]3CO[P@@](=O)(S)O[C@H]2[C@H]1F`: at human STING wild type, the pEC50 is under 4.60.
`Nc1ncnc2c1ncn2C1OC2COP(=O)(S)OC3C(COP(=O)(S)OC2C1F)OC(n1cnc2c(N)ncnc21)C3F` (stereo not drawn) [Compound T1-1, di-2′-F—RR-CDA] showed a pEC50 at human STING wild type of 6.53. Also, in test [1], the “plasma IL-12p70” value is reported as “increased”, the “plasma IP-10” value is on record as “increased” and the “plasma TNFα” value is “increased”. For the same compound, the pEC50 in the test on THP1-Dual/STING-KO cells was under 4.30. Moreover, in test [2], the “circulating plasma IL-12p70” value is reported as “increased”, the “circulating plasma IP-10” value is recorded as “increased” and the “circulating plasma TNFα” value is reported as “increased”. The same compound had a pEC50 with THP1-Dual cells of 6.34.
In the test with THP1-Dual cells, `Nc1ncnc2c1ncn2[C@@H]1O[C@@H]2CO[P@@](=O)(S)O[C@@H]3[C@H](O)[C@@H](CO[P@@](=O)(S)O[C@H]2[C@H]1F)O[C@H]3n1cnc2c(N)ncnc21` [Compound T1-2] gave a pEC50 of 5.70.
